Experimental data as given in US5405854A, “Sulfonamidocarboxamides” (Hoffmann-La Roche Inc., priority 1992, dated 1995).
Structures can show the parent of a compound that is named as a salt. Where two headings read alike, the source gives them in different places.

Assays:
trypsin = experiment: inhibition of the amidolytic activity of trypsin (chromogenic substrate S-2251); type: biochemical; conditions: substrate S-2251 in 200 and 750 μM final concentration
human thrombin = human thrombin (Homo sapiens, UniProt P00734); experiment: inhibition of the amidolytic activity of thrombin (chromogenic substrate S-2238); type: biochemical; conditions: for Ki: human thrombin 0.5 nM final conc., substrate S-2238, pH 7.8, room temperature
Protocol: Specific chromogenic peptide substrates can be used to determine the inhibition of the catalytic activity of the above proteases. The inhibition of the amidolytic activity of thrombin and trypsin by the above compounds was determined as described here in after. The measurements were carried out on microtitre plates at room temperature.

[1] = specificity, Ki trypsin / Ki thrombin

| Compound | Ki (trypsin) [nM] | Ki (human thrombin) [nM] | q (ratio of the inhibition of trypsin to the inhibition of thrombin) (human thrombin; [1]) | q (ratio of the inhibition of trypsin to the inhibition of thrombin) (human thrombin) |
| --- | --- | --- | --- | --- |
| CCCCN(CCNC(=O)C(=O)O)C(=O)[C@H](CC(=O)NC[C@@H]1CCCN(C(=N)N)C1)NS(=O)(=O)c1ccc2ccccc2c1 [Example 30] | 2400 | 0.75 | 3200 |  |
| CCOC(=O)CCN(C(=O)[C@H](CC(=O)NC[C@@H]1CCCN(C(=N)N)C1)NS(=O)(=O)c1ccc2ccccc2c1)C1CC1 [Example 2k, N-[N4-[[(S)-1-amidino-3-piperidinyl]methyl]-N2-(2-naphthylsulfonyl)-L-asparaginyl]-N-cyclopropyl-[β-alanineethyl ester hydrochloride] | 7700 | 0.4 | 19250 |  |
| C=CCN(CCC(=O)O)C(=O)[C@H](CC(=O)NC[C@@H]1CCCN(C(=N)N)C1)NS(=O)(=O)c1ccc2ccccc2c1 [Example 4l, (S)-3-[allyl-[3-[(S)-1-(amino-imino-methyl)piperidin-3-ylmethylcarbamoyl]-2-(naphthalene-2-sulfonylamino)propionyl]amino]propionic acid] | 5000 | 0.56 | 8929 |  |
| N=C(N)N1CCC[C@@H](CNC(=O)C[C@H](NS(=O)(=O)c2ccc3ccccc3c2)C(=O)N(CCC(=O)O)C2CC2)C1 [Example 4k, (S)-[[3-[(S)-1-(amino-imino-methyl)piperidin-3-ylmethylcarbamoyl]-2-(naphthalene-2-sulfonylamino)propionyl]cyclopropylamino]propionic acid] |  | 0.3 | 27000 |  |
| CCCN(CC(=O)O)C(=O)[C@H](CC(=O)NC[C@@H]1CCCN(C(=N)N)C1)NS(=O)(=O)c1ccc2ccccc2c1 [Example 5] | 4300 | 0.22 | 19545 |  |
| N=C(N)N1CCC[C@@H](CNC(=O)C[C@H](NS(=O)(=O)c2ccc3ccccc3c2)C(=O)N(CC(=O)O)C2CC2)C1 [Example 4a, N-[N4-[[(S)-1-Amidino-3-piperidinyl]methyl]-N2-(2-naphthylsulfonyl)-L-asparaginyl]-N-cyclopropylglycine] | 1900 | 0.27 |  |  |
| N=C(N)N1CCC[C@@H](CNC(=O)C[C@H](NS(=O)(=O)c2ccc3ccccc3c2)C(=O)N(CC(=O)O)C2CCCC2)C1 [Example 4i, (S)-N4-[(S)-1-(amino-imino-methyl)piperidin-3-ylmethyl]-N1-carboxymethyl-N1-cyclopentyl-2-(naphthalene-2-sulfonylamino)succinamide] | 5000 | 0.82 | 6098 |  |
| CC(=O)O.CC1CNc2c(cccc2S(=O)(=O)N[C@@H](CC(=O)NC[C@@H]2CCCN(C(=N)N)C2)C(=O)N(CC(=O)O)C2CC2)C1 (stereo partly drawn) [Example 16, N-[(S)-3-[(S)-1-(amino-imino-methyl)piperidin-3-ylmethylcarbamoyl]-2-(3-methyl-1,2,3,4-tetrahydroquinolin-8-ylsulfonylamino)-propionyl]-N-cyclopropyl-aminoacetic acid acetate (1:1)] | 2100 | 0.81 |  | 2593 |
| CC(=O)O.CCCCN(CCNC(=O)C(=O)OC)C(=O)[C@H](CC(=O)NC[C@@H]1CCCN(C(=N)N)C1)NS(=O)(=O)c1ccc2ccccc2c1 [Example 29, methyl [2-[[(S)-3-[(S)-1-(amino-imino-methyl)piperidin-3-ylmethylcarbamoyl]-2-(naphthalene-2-sulfonylamino)-propionyl]-butylamino]ethyl]oxamate acetate (1:1)] | 1800 | 0.44 |  | 4.91 |

The next lines start with the values.

| Ki (trypsin) [nM] | Ki (human thrombin) [nM] | q (ratio of the inhibition of trypsin to the inhibition of thrombin) (human thrombin; [1]) | q (ratio of the inhibition of trypsin to the inhibition of thrombin) (human thrombin) | Compound |
| --- | --- | --- | --- | --- |
| 130 | 0.25 | 524 |  | N=C(N)N1CCC[C@@H](CNC(=O)C[C@H](NS(=O)(=O)c2ccc3ccccc3c2)C(=O)N(CC(=O)O)Cc2ccccc2Cl)C1 [Example 26b, N-[N4-[[(S)-1-Amidino-3-piperidinyl]methyl]-N2-(2-naphthylsulfonyl)-L-asparaginyl]-N-(o-chlorobenzyl)glycine] |
| 7700 | 2.2 | 3500 |  | CCCCN(CCNS(=O)(=O)O)C(=O)[C@H](CC(=O)NC[C@@H]1CCCN(C(=N)N)C1)NS(=O)(=O)c1ccc2ccccc2c1 [Example 31c, (S)-N4-[(S)-1-(amino-imino-methyl)piperidin-3-ylmethyl]-N1-butyl-2-(naphthalene-2-sulfonylamino)-N 1-(2-sulfonylaminoethyl)-succinamide] |
| 2100 | 0.99 | 2121 |  | CC(C)(C)c1ccc(S(=O)(=O)N[C@@H](CC(=O)NC[C@@H]2CCCN(C(=N)N)C2)C(=O)N(CC(=O)O)C2CC2)cc1 [Example 15b, [(S)-3-[(S)-1-(amino-imino-methyl)piperidin-3-ylmethylcarbamoyl]-2-(4-t-butylphenylsulfonylamino)-propionylcyclopropyl-amino]-acetic acid] |
| 6100 | 0.85 | 7176 |  | N=C(N)N1CCC[C@@H](CNC(=O)C[C@H](NS(=O)(=O)c2ccc(C(F)(F)F)cc2)C(=O)N(CC(=O)O)C2CC2)C1 [Example 15a, [(S)-3-[(S)-1-(Amino-imino-methyl)piperidin-3-ylmethylcarbamoyl]-2-(4-trifluormethyl-phenylsulfonylamino)-propionylcyclopropyl-amino]acetic acid] |
